According to ChEMBL document CHEMBL1131850, “The synthesis and anti-MRSA activity of amidinium-substituted 2-dibenzofuranylcarbapenems” (1999):
In brackets after ≈: the same amount, converted by molar mass.

Key:
[1] = Compound was tested in vitro for its activity against Methicillin-Resistant Coagulase Negative Staphylococci(MRCNS 9); format: functional; details: Staphylococcus
Staphylococcus aureus = experiment: Compound was tested in vitro for its activity against methicillin-Resistant Staphylococcus Aureus(MRSA 12); format: functional
Mus musculus [2] = experiment: Compound was evaluated in vivo for percent binding to human albumin fraction V; format: functional, organism-based
Mus musculus [3] = species: Mus musculus; experiment: Effective dose against Staphylococcus aureus MB2985 (methicillin-susceptible) in mouse systemic infection model; format: functional
[4] = In vivo inhibitory activity against Staphylococcus aureus MB2985 (methicillin-susceptible) in mouse systemic infection model; format: functional
Mus musculus [5] = experiment: Compound was evaluated in vivo for plasma MIC in presence of human albumin fraction V (21.5 mg/mL); format: functional, organism-based
[6] = Compound was evaluated in vivo for percent binding to human albumin fraction V.; format: functional, organism-based
Mus musculus [7] = species: Mus musculus; experiment: Plasma MIC against staphylococcus aureus infection in mice in presence of human albumin fraction V (21.5 mg/mL); format: functional, organism-based

Compound	MIC50 [1] [µg/mL]	MIC90 [1] [µg/mL]	MIC50 (Staphylococcus aureus) [µg/mL]	MIC90 (Staphylococcus aureus) [µg/mL]	PPB (Mus musculus [2]) [%]	ED50 (Mus musculus [3]) [mg/kg]	MIC [4] [µg/mL]	Plasma MIC (Mus musculus [5]) [µg/mL]	PPB [6] [%]	Plasma MIC (Mus musculus [7]) [µg/mL]
C[C@@H](O)[C@H]1C(=O)N2C(C(=O)O)=C(c3cc(C(=N)N(C)C)c4oc5ccccc5c4c3)C[C@H]12	4 (≈ 9.23 µM)	8 (≈ 18.5 µM)	2 (≈ 4.61 µM)	8 (≈ 18.5 µM)	–	–	–	–	–	–
CN[C@H](CC(C)C)C(=O)N[C@H]1C(=O)N[C@@H](CC(N)=O)C(=O)N[C@H]2C(=O)N[C@H]3C(=O)N[C@H](C(=O)N[C@H](C(=O)O)c4cc(O)cc(O)c4-c4cc3ccc4O)[C@H](O)c3ccc(c(Cl)c3)Oc3cc2cc(c3O[C@@H]2O[C@H](CO)[C@@H](O)[C@H](O)[C@H]2O[C@H]2C[C@](C)(N)[C@H](O)[C@H](C)O2)Oc2ccc(cc2Cl)[C@H]1O [VANCOMYCIN]	4 (≈ 2.76 µM)	8 (≈ 5.52 µM)	1 (≈ 0.69 µM)	2 (≈ 1.38 µM)	–	–	–	–	–	–
C[C@@H](O)[C@H]1C(=O)N2C(C(=O)O)=C(c3cc(C#N)c4oc5ccccc5c4c3)C[C@H]12	1 (≈ 2.57 µM)	1 (≈ 2.57 µM)	0.5 (≈ 1.29 µM)	1 (≈ 2.57 µM)	98	1.44	< 0.016	> 32	–	–
C[C@@H](O)[C@H]1C(=O)N2C(C(=O)O)=C(c3cc(C4=NCCN4C)c4oc5ccccc5c4c3)C[C@H]12	2 (≈ 4.49 µM)	4 (≈ 8.98 µM)	2 (≈ 4.49 µM)	4 (≈ 8.98 µM)	–	–	–	–	–	–
C[C@@H](O)[C@H]1C(=O)N2C(C(=O)O)=C(c3ccc4oc5ccccc5c4c3)C[C@H]12	4 (≈ 11 µM)	8 (≈ 22 µM)	2 (≈ 5.5 µM)	4 (≈ 11 µM)	–	–	–	–	–	–
CNC(=N)c1cc(C2=C(C(=O)O)N3C(=O)[C@H]([C@@H](C)O)[C@H]3C2)cc2c1oc1ccccc12	2 (≈ 4.77 µM)	2 (≈ 4.77 µM)	1 (≈ 2.38 µM)	4 (≈ 9.54 µM)	–	–	–	–	–	–
C[C@@H](O)[C@H]1C(=O)N2C(C(=O)O)=C(c3cc(C4=NCCCN4)c4oc5ccccc5c4c3)C[C@H]12	2 (≈ 4.49 µM)	4 (≈ 8.98 µM)	1 (≈ 2.24 µM)	2 (≈ 4.49 µM)	–	–	–	–	–	–
C[C@@H](O)[C@H]1C(=O)N2C(C(=O)O)=C(SCCNC=N)C[C@H]12 [IMIPENEM ANHYDROUS]	> 128	> 128	32 (≈ 107 µM)	128 (≈ 428 µM)	–	0.026	0.01 (≈ 0.0334 µM)	–	< 5	0.014
C[C@@H](O)[C@H]1C(=O)N2C(C(=O)O)=C(c3cc(C4=NCCN4)c4oc5ccccc5c4c3)C[C@H]12	1 (≈ 2.32 µM)	1 (≈ 2.32 µM)	1 (≈ 2.32 µM)	1 (≈ 2.32 µM)	–	0.135	≤ 0.016	–	34	0.063
C[C@@H](O)[C@H]1C(=O)N2C(C(=O)[O-])=C(c3cc(C4=[N+](C)CCN4C)c4oc5ccccc5c4c3)C[C@H]12	16 (≈ 34.8 µM)	32 (≈ 69.6 µM)	8 (≈ 17.4 µM)	32 (≈ 69.6 µM)	–	–	–	–	–	–
C[C@@H](O)[C@H]1C(=O)N2C(C(=O)O)=C(c3cc(C(=N)N)c4oc5ccccc5c4c3)C[C@H]12	1 (≈ 2.47 µM)	2 (≈ 4.93 µM)	1 (≈ 2.47 µM)	2 (≈ 4.93 µM)	–	< 0.096	0.031 (≈ 0.0765 µM)	–	71	0.031
C[C@@H](O)[C@H]1C(=O)N2C(C(=O)O)=C(c3cc(C(N)=O)c4oc5ccccc5c4c3)C[C@H]12	2 (≈ 4.92 µM)	2 (≈ 4.92 µM)	0.5 (≈ 1.23 µM)	1 (≈ 2.46 µM)	–	0.55	0.031 (≈ 0.0763 µM)	1	95	–
C[C@@H](O)[C@H]1C(=O)N2C(C(=O)[O-])=C(c3cc(-c4n(C)cc[n+]4C)c4oc5ccccc5c4c3)C[C@H]12	8 (≈ 17.5 µM)	16 (≈ 35 µM)	4 (≈ 8.74 µM)	8 (≈ 17.5 µM)	–	–	–	–	–	–
